{
  "source": "patent US7662371B2",
  "about": "“Composition for lowering the concentration of intestinal pathogenic peptides” (Neurozym Biotech AS, priority 2001, dated 2010)",
  "origin": "cited, not measured here",
  "settings": "oral treatment, regressive-onset autism",
  "data": [
    {"smiles": "CN[C@H](CC(C)C)C(=O)N[C@H]1C(=O)N[C@@H](CC(N)=O)C(=O)N[C@H]2C(=O)N[C@H]3C(=O)N[C@H](C(=O)N[C@H](C(=O)O)c4cc(O)cc(O)c4-c4cc3ccc4O)[C@H](O)c3ccc(c(Cl)c3)Oc3cc2cc(c3O[C@@H]2O[C@H](CO)[C@@H](O)[C@H](O)[C@H]2O[C@H]2C[C@](C)(N)[C@H](O)[C@H](C)O2)Oc2ccc(cc2Cl)[C@H]1O", "note": "[vancomycin]", "values": [
      {"measurement": "improvement, number of children", "value": "8 of 10"}
    ]}
  ]
}
